Measured values from ChEMBL document CHEMBL1129683, “Thermodynamic aspects of hydrophobicity and the blood-brain barrier permeability studied with a gel filtration chromatography” (J Med Chem, 1996).

Assay: Micelle/water partition coefficient (Pmic) of the compound was determined
Format: physicochemical
Settings: buffer

**Q.** Which “Log Pmic” value does the source give for `Cc1cc(=O)n(-c2ccccc2)n1C` [ANTIPYRINE] here?
**A.** 0.58

**Q.** With `CN1CC(=O)NC1=N` [CREATININE] as the compound, how does the “Log Pmic” value read?
**A.** -0.3

**Q.** For `COc1cccc2c1C(=O)c1c(O)c3c(c(O)c1C2=O)C[C@@](O)(C(=O)CO)C[C@@H]3O[C@H]1C[C@H](N)[C@H](O)[C@H](C)O1` [DOXORUBICIN], which “Log Pmic” value is on record?
**A.** 1.9

**Q.** With `O=c1[nH]cc(F)c(=O)[nH]1` [FLUOROURACIL] as the compound, how does the “Log Pmic” value read?
**A.** 0.21

**Q.** With `NC=O` [FORMAMIDE] as the compound, how does the “Log Pmic” value read?
**A.** -0.35

**Q.** With `Cc1ncc([N+](=O)[O-])n1CCO` [METRONIDAZOLE] as the compound, how does the “Log Pmic” value read?
**A.** 0.54

**Q.** With `CNC(=O)c1cccnc1` [NICOTINYL METHYLAMIDE] as the compound, how does the “Log Pmic” value read?
**A.** 0.39

**Q.** For `CCc1nc(N)nc(N)c1-c1ccc(Cl)cc1` [PYRIMETHAMINE], which “Log Pmic” value is on record?
**A.** 2.51

**Q.** Which “Log Pmic” value does the source give for `O=c1[nH]c(=O)n(C2CCCO2)cc1F` (configuration not stated) [TEGAFUR] here?
**A.** 0.7

**Q.** With `NC(N)=S` [THIOUREA] as the compound, how does the “Log Pmic” value read?
**A.** 0.48

**Q.** For `NC(N)=O` [UREA], which “Log Pmic” value is on record?
**A.** -0.12

**Q.** With `CC[C@]1(O)C[C@H]2CN(CCc3c([nH]c4ccccc34)[C@@](C(=O)OC)(c3cc4c(cc3OC)N(C=O)[C@H]3[C@@](O)(C(=O)OC)[C@H](OC(C)=O)[C@]5(CC)C=CCN6CC[C@]43[C@@H]65)C2)C1` [VINCRISTINE] as the compound, how does the “Log Pmic” value read?
**A.** 2.48
